Patent US20210128566A1, “NOVEL FUNCTIONALIZED PURINE-2,6-DIONES AND THEIR USE IN MEDICINE” (THOMAS HELLEDAYS STIFTELSE FÖR MEDICINSK FORSKNING, priority 2017, published 2021)

target: recombinant human NUDT5 (Homo sapiens, UniProt Q9UKK9); experiment: NUDT5 inhibitor activity by malachite green reporter assay; format: biochemical; details: Table 3; 6 nM NUDT5, 50 μM ADP-Ribose, 15 minutes at room temperature
Description: NUDT5 inhibitors were evaluated using a coupled enzymatic assay with detection of inorganic phosphate (Pi) using the malachite green assay. Following enzymatic hydrolysis of ADP-Ribose (Sigma-Aldrich A0572) by NUDT5, to yield AMP and ribose-5-phosphate, the latter product is continuously processed by a significant excess of alkaline phosphatase (Sigma-Aldrich, P0114). Formation of Pi is quantified based on the green complex (that absorbs at 630 nm) formed between malachite green and molybdate according to published procedure (Baykov, A. A., Evtushenko, O. A. and Avaeva, S. M., Anal Biochem, 171, 266-270 (1988)). Assay buffer consisted of 10 mM Tris-acetate at pH 8.0, 40 mM sodium chloride, 10 mM magnesium acetate, 0.005% Tween-20 and 1 mM dithiothreitol (DTT). The final conditions consisted of 6 nM recombinant human NUDT5, 50 μM ADP-Ribose and 10 U/ml of calf intestine alkaline phosphatase. The plates with compounds, enzymes and substrate were incubated at room temperature for 15 minutes, after which the reaction was terminated and the signal developed by the addition of the malachite green reagent using a MultiDrop (Thermo Scientific). Following vigorous shaking on plate shakers for a minimum of eight minutes the absorbance was read in a microplate reader (HidexSense) using a filter at 630 nm and a read time of 0.1 s per well. Inhibitors were used in dilutions from 100 μM to 1.7 nM in 3-fold dilution steps. Experiments were run in duplicate and confirmed in two independent experiments. IC50 values were determined by curve fitting using ExcelFit.

Row | IC50 | Compound
1 | > 1000 nM | COCCN1CCN(c2nc3c(c(=O)n(C)c(=O)n3C)n2Cc2nnc(-c3cccc(C)c3)o2)CC1 [Example 57, 8-[4-(2-methoxyethyl)piperazin-1-yl]-1,3-dimethyl-7-{[5-(3-methylphenyl)-1,3,4-oxadiazol-2-yl]methyl}-2,3,6,7-tetrahydro-1H-purine-2,6-dione]
2 | > 1000 nM | Cc1cccc(-c2nnc(Cn3c(N4CCN(c5ccccc5)CC4)nc4c3c(=O)n(C)c(=O)n4C)o2)c1 [Example 58, 1,3-dimethyl-7-{[5-(3-methylphenyl)-1,3,4-oxadiazol-2-yl]methyl}-8-(4-phenylpiperazin-1-yl)-2,3,6,7-tetrahydro-1H-purine-2,6-dione]
3 | > 1000 nM | Cc1cccc(-c2nnc(Cn3c(N4CCN(C5CCCCC5)CC4)nc4c3c(=O)n(C)c(=O)n4C)o2)c1 [Example 59, 8-(4-cyclohexylpiperazin-1-yl)-1,3-dimethyl-7-{[5-(3-methylphenyl)-1,3,4-oxadiazol-2-yl]methyl}-2,3,6,7-tetrahydro-1H-purine-2,6-dione]
4 | 28.4 nM | Cc1nc2c(c(=O)n(C)c(=O)n2C)n1Cc1nnc(-c2ccc(Cl)c(Cl)c2)o1 [Example 60, 7-{[5-(3,4-dichlorophenyl)-1,3,4-oxadiazol-2-yl]methyl}-1,3,8-trimethyl-2,3,6,7-tetrahydro-1H-purine-2,6-dione]
5 | 246 nM | CCCc1nc2c(c(=O)n(C)c(=O)n2C)n1Cc1nnc(-c2ccc(Cl)c(Cl)c2)o1 [Example 61, 7-{[5-(3,4-dichlorophenyl)-1,3,4-oxadiazol-2-yl]methyl}-1,3-dimethyl-8-propyl-2,3,6,7-tetrahydro-1H-purine-2,6-dione]
6 | > 1000 nM | CC(C)c1nc2c(c(=O)n(C)c(=O)n2C)n1Cc1nnc(-c2ccc(Cl)c(Cl)c2)o1 [Example 62, 7-{[5-(3,4-dichlorophenyl)-1,3,4-oxadiazol-2-yl]methyl}-1,3-dimethyl-8-(propan-2-yl)-2,3,6,7-tetrahydro-1H-purine-2,6-dione]
7 | > 1000 nM | Cn1c(=O)c2c(nc(Cc3ccccc3)n2Cc2nnc(-c3ccc(Cl)c(Cl)c3)o2)n(C)c1=O [Example 63, 8-benzyl-7-{[5-(3,4-dichlorophenyl)-1,3,4-oxadiazol-2-yl]methyl}-1,3-dimethyl-2,3,6,7-tetrahydro-1H-purine-2,6-dione]

same assay, conditions: Table 4; 6 nM NUDT5, 50 μM ADP-Ribose, 15 minutes at room temperature

Row | Compound | IC50
8 | Cn1c(=O)c2c(nc(N3CCN(CCNC(=O)OC(C)(C)C)CC3)n2Cc2nnc(-c3ccc(Cl)c(Cl)c3)o2)n(C)c1=O [Example 64, tert-butyl N-{2-[4-(7-{[5-(3,4-dichlorophenyl)-1,3,4-oxadiazol-2-yl]methyl}-1,3-dimethyl-2,6-dioxo-2,3,6,7-tetrahydro-1H-purin-8-yl)piperazin-1-yl]ethyl}carbamate] | 226 nM
9 | Cn1c(=O)c2c(nc(N3CCC(CNC(=O)OC(C)(C)C)CC3)n2Cc2nnc(-c3ccc(Cl)c(Cl)c3)o2)n(C)c1=O [Example 65, tert-butyl N-{[1-(7-{[5-(3,4-dichlorophenyl)-1,3,4-oxadiazol-2-yl]methyl}-1,3-dimethyl-2,6-dioxo-2,3,6,7-tetrahydro-1H-purin-8-yl)piperidin-4-yl]methyl}carbamate] | 33.8 nM
10 | Cn1c(=O)c2c(nc(-n3ccnc3)n2Cc2nnc(-c3ccc(Cl)c(Cl)c3)o2)n(C)c1=O [Example 66, 7-{[5-(3,4-dichlorophenyl)-1,3,4-oxadiazol-2-yl]methyl}-8-(1H-imidazol-1-yl)-1,3-dimethyl-2,3,6,7-tetrahydro-1H-purine-2,6-dione] | 58.2 nM
11 | Cn1c(=O)c2c(nc(-n3cccn3)n2Cc2nnc(-c3ccc(Cl)c(Cl)c3)o2)n(C)c1=O [Example 67, 7-{[5-(3,4-dichlorophenyl)-1,3,4-oxadiazol-2-yl]methyl}-1,3-dimethyl-8-(1H-pyrazol-1-yl)-2,3,6,7-tetrahydro-1H-purine-2,6-dione] | 200 nM
12 | CCOC(=O)c1cnn(-c2nc3c(c(=O)n(C)c(=O)n3C)n2Cc2nnc(-c3ccc(Cl)c(Cl)c3)o2)c1 [Example 68, ethyl 1-(7-{[5-(3,4-dichlorophenyl)-1,3,4-oxadiazol-2-yl]methyl}-1,3-dimethyl-2,6-dioxo-2,3,6,7-tetrahydro-1H-purin-8-yl)-1H-pyrazole-4-carboxylate] | 214 nM
13 | Cn1c(=O)c2c(nc(Cl)n2Cc2nc(-c3ccc(Cl)cc3)no2)n(C)c1=O [Example 69, 8-chloro-7-{[3-(4-chlorophenyl)-1,2,4-oxadiazol-5-yl]methyl}-1,3-dimethyl-2,3,6,7-tetrahydro-1H-purine-2,6-dione] | 296 nM
14 | Cn1c(=O)c2c(nc(N3CCNCC3)n2Cc2nc(-c3ccc(Cl)cc3)no2)n(C)c1=O [Example 70, 7-{[3-(4-chlorophenyl)-1,2,4-oxadiazol-5-yl]methyl}-1,3-dimethyl-8-(piperazin-1-yl)-2,3,6,7-tetrahydro-1H-purine-2,6-dione] | 57.4 nM

More lines, now with the values ahead:

Row | IC50 | Compound
15 | 81.6 nM | Cn1c(=O)c2c(nc(Cl)n2Cc2coc(-c3ccc(Cl)c(Cl)c3)n2)n(C)c1=O [Example 71, 8-chloro-7-{[2-(3,4-dichlorophenyl)-1,3-oxazol-4-yl]methyl}-1,3-dimethyl-2,3,6,7-tetrahydro-1H-purine-2,6-dione]
16 | 21 nM | Cn1c(=O)c2c(nc(N3CCNCC3)n2Cc2coc(-c3ccc(Cl)c(Cl)c3)n2)n(C)c1=O [Example 72, 7-{[2-(3,4-dichlorophenyl)-1,3-oxazol-4-yl]methyl}-1,3-dimethyl-8-(piperazin-1-yl)-2,3,6,7-tetrahydro-1H-purine-2,6-dione]
17 | 1260 nM | COc1ccc(-c2nnc(Cn3c(Cl)nc4c3c(=O)n(C)c(=O)n4C)o2)cc1 [Example 73, 8-chloro-7-{[5-(4-methoxyphenyl)-1,3,4-oxadiazol-2-yl]methyl}-1,3-dimethyl-2,3,6,7-tetrahydro-1H-purine-2,6-dione]
18 | 198 nM | COc1ccc(-c2nnc(Cn3c(N4CCNCC4)nc4c3c(=O)n(C)c(=O)n4C)o2)cc1 [Example 74, 7-{[5-(4-methoxyphenyl)-1,3,4-oxadiazol-2-yl]methyl}-1,3-dimethyl-8-(piperazin-1-yl)-2,3,6,7-tetrahydro-1H-purine-2,6-dione]
19 | 239 nM | Cn1c(=O)c2c(nc(Cl)n2Cc2cnc(-c3ccc(Cl)cc3)s2)n(C)c1=O [Example 75, 8-chloro-7-{[2-(4-chlorophenyl)-1,3-thiazol-5-yl]methyl}-1,3-dimethyl-2,3,6,7-tetrahydro-1H-purine-2,6-dione]
20 | 376 nM | Cn1c(=O)c2c(nc(N3CCNCC3)n2Cc2cnc(-c3ccc(Cl)cc3)s2)n(C)c1=O [Example 76, 7-{[2-(4-chlorophenyl)-1,3-thiazol-5-yl]methyl}-1,3-dimethyl-8-(piperazin-1-yl)-2,3,6,7-tetrahydro-1H-purine-2,6-dione]
21 | 19700 nM | COc1ccc(-c2cc(Cn3c(Cl)nc4c3c(=O)n(C)c(=O)n4C)on2)cc1 [Example 77, 8-chloro-7-{[3-(4-methoxyphenyl)-1,2-oxazol-5-yl]methyl}-1,3-dimethyl-2,3,6,7-tetrahydro-1H-purine-2,6-dione]
22 | 491 nM | COc1ccc(-c2cc(Cn3c(N4CCNCC4)nc4c3c(=O)n(C)c(=O)n4C)on2)cc1 [Example 78, 7-{[3-(4-methoxyphenyl)-1,2-oxazol-5-yl]methyl}-1,3-dimethyl-8-(piperazin-1-yl)-2,3,6,7-tetrahydro-1H-purine-2,6-dione]
23 | 530 nM | Cc1ccc(-c2cc(Cn3c(N4CCNCC4)nc4c3c(=O)n(C)c(=O)n4C)no2)cc1 [Example 79, 1,3-dimethyl-7-{[5-(4-methylphenyl)-1,2-oxazol-3-yl]methyl}-8-(piperazin-1-yl)-2,3,6,7-tetrahydro-1H-purine-2,6-dione]
24 | 3790 nM | Cc1ccc(-c2cc(Cn3c(Cl)nc4c3c(=O)n(C)c(=O)n4C)no2)cc1 [Example 80, 8-chloro-1,3-dimethyl-7-{[5-(4-methylphenyl)-1,2-oxazol-3-yl]methyl}-2,3,6,7-tetrahydro-1H-purine-2,6-dione]
25 | 149 nM | CCOC(=O)c1cn2c(n1)CN(c1nc3c(c(=O)n(C)c(=O)n3C)n1Cc1nnc(-c3ccc(Cl)c(Cl)c3)o1)CC2 [Example 81, ethyl 7-(7-{[5-(3,4-dichlorophenyl)-1,3,4-oxadiazol-2-yl]methyl}-1,3-dimethyl-2,6-dioxo-2,3,6,7-tetrahydro-1H-purin-8-yl)-5H,6H,7H,8H-imidazo[1,2-a]pyrazine-2-carboxylate]
26 | 454 nM | Cn1c(=O)c2c(nc(NCCS(=O)(=O)O)n2Cc2nnc(-c3ccc(Cl)c(Cl)c3)o2)n(C)c1=O [Example 82, 2-[(7-{[5-(3,4-dichlorophenyl)-1,3,4-oxadiazol-2-yl]methyl}-1,3-dimethyl-2,6-dioxo-2,3,6,7-tetrahydro-1H-purin-8-yl)amino]ethane-1-sulfonic acid]
27 | 20.2 nM | Cn1c(=O)c2c(nc(N3CCNC(=O)C3)n2Cc2nnc(-c3ccc(Cl)c(Cl)c3)o2)n(C)c1=O [Example 83, 7-{[5-(3,4-dichlorophenyl)-1,3,4-oxadiazol-2-yl]methyl}-1,3-dimethyl-8-(3-oxopiperazin-1-yl)-2,3,6,7-tetrahydro-1H-purine-2,6-dione]
